The record followed here is patent publication US9102648B1, “Bioavailable diacylhydrazine ligands for modulating the expression of exogenous genes via an ecdysone receptor complex” (Intrexon Corporation, priority 2003, dated 2015).

For data set [1], the system named is mutated ecdysone receptor-based gene switch. The data set can be described thus: In vivo SEAP induction, ligand by IP injection. Further details: species or system C57BL/6 mouse. The conditions noted are these: mouse serum. The procedure, abridged: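 Gene switch plasmids (receptor under CMV promoter) electroporated into quadriceps of C57BL/6 mice; 3 days later ligand given IP at 2.6 μmol or 26 nmol in 50 μL DMSO per mouse. Serum SEAP measured by chemiluminescence 2-11 days after dosing, averaged over four animals, expressed as % of GS™-E ligand induction.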

Data set [2] can be described thus: Determination of water solubility (de-ionized water, LC/MS). The following applies: kinetic from dmso stock.
Procedure: Aqueous solutions are prepared as follows in triplicate: 50 μl of a 10,000 ppm solution (2,000 μg of solid dissolved in 200 μl of methanol) of the substrate in methanol or DMSO is added to 1 mL of de-ionized water in a 2 dram or smaller vial with magnetic stirring. Stirring is continued overnight at ambient temperature. The slurry is taken up into a syringe with a luer tip. The contents are passed through a new 13 mm 0.2 ρM Acrodisc filter (tuffryn or glass fiber) into an autosampler bottle. For preparation of calibration standard solutions: dilutions of the 10,000 ppm solution were prepared at 10, 5, 1, 0.5, and 0.2 ppm. […] For more soluble materials, dilution of the samples into this range is preferable to increasing the calibration range because the non-linearity of the response results in less useful calibration curves. However a shift in the range of calibration standards is required for very insoluble compounds.
Chromatography of the samples was then preformed. For most diacylhydrazines the following conditions were adequate for the measurement. Other columns and gradients may be substituted as appropriate.
Analysis of the test samples is conducted as follows: Each solubility replicate is analyzed in duplicate. […] Standard curves are obtained from duplicate injections of the standards. The concentration of the substrate is determined by calculation from the equation relating concentration and response.
Data set [3] in a line: Partition coefficient Log (D), 1-octanol / pH 7.4 buffer. The data set is classed as physicochemical. The conditions noted are these: water-saturated 1-octanol / pH 7.4 buffer, room temperature. The method, then: The partition coefficient, Log (D), between water-saturated 1-octanol and pH 7.4 buffer was determined for the test compounds. The buffer was prepared as described in section 2. A 12 μl aliquot of a 10 mM stock solution in DMSO was introduced to a vial containing 0.60 mL of octanol and 0.60 mL of buffer at room temperature. Testosterone was also added to a final concentration of 100 μM as an internal control. The solution was vortexed for 60 minutes and centrifuged at 10,000 rpm for 10 minutes. The organic and aqueous layers were removed. Serial dilutions of the organic layer were made with 50% methanol except for the initial dilution, which was made in 100% methanol. Serial dilutions of the aqueous layer were made in the pH 7.4 buffer. The diluted samples were then assayed by LC/MS for the compound as well as for testosterone. The Log of the ratio of peak area responses was calculated to obtain the Log (D). Typical Log D values for testosterone are from 3.0-3.3.

Data set [4] can be described thus: Bi-directional permeability, CACO-2. The data set is classed as in vitro ADME. The conditions noted are these: for Papp at 2 h, 10 µM: Caco-2, pH 7, cell-free (blank) membrane, read-out: Papp Blank. The method, then: (§1) Caco-2 monolayers were grown to confluence on collagen-coated, microporous, polycarbonate membranes in 12-well Costar Transwell plates. Details of the plates and their certification are shown below. The permeability assay buffer was Hank's Balanced Salt Solution containing 10 mM HEPES and 15 mM glucose at a pH of 7.0±0.2. The dosing solution concentration was 10 μM in assay buffer. At each time point, 1 and 2 hours, a 200-μL aliquot was taken from the receiver chamber and replaced with fresh assay buffer. Cells were dosed on the apical side (A-to-B) or basolateral side (B-to-A) and incubated at 37° C. with 5% CO2 and 90% relative humidity. Each determination was performed in duplicate. The important experimental parameters are outlined below. Permeability through a cell-free (blank) membrane was studied to determine non-specific binding and free diffusion of the compound through the device. Lucifer yellow flux was also measured for each monolayer after being subjected to the test compounds to ensure no damage was inflicted to the cell monolayers during the flux period.
(§2) All samples were assayed by LC/MS using electrospray ionization. Typical LC/MS conditions are as follows:
(§3) dCr/dt is the cumulative concentration in the receiver compartment versus time in M s^−1.
(§4) Vr is the volume of the receiver compartment in cm^3.
(§5) Vd is the volume of the donor compartment in cm^3.
(§6) A is the area of the cell monolayer (1.13 cm^2 for 12-well Transwell).
(§7) C0 is the concentration of the dosing solution in M.
(§8) Cr^final is the cumulative receiver concentration in M at the end of the incubation period.
(§9) Cd^final is the concentration of the donor in M at the end of the incubation period.

Another data set has as its system Caco-2 monolayers. The data set can be described thus: Bi-directional permeability, CACO-2. The data set is classed as in vitro ADME. The conditions noted are these: for Absorption Potential: classification from Papp(A-to-B). The method, then: as §1, §2, §3, §4, §5, §6, §7, §8, §9
For orientation: Passage across Caco-2 layers is used to estimate intestinal permeability.

Data set [5] can be described thus: Aqueous equilibrium solubility in pH 7.4 buffer. The conditions noted are these: for solubility: pH 7.4 aqueous phosphate buffer, pH 7.4, aqueous buffer, thermodynamic from solid.
Setting [6] is: Caco-2, pH 7, Percent Recovery Blank.
Where [7] appears, read: human, Caco-2, pH 7, Caco-2, 10 μM, replicate 2, read-out: Papp, B-to-A Rep. 2.
Where [8] appears, read: human, Caco-2, pH 7, Percent Recovery A-to-B.
Where [9] appears, read: human, Caco-2, pH 7, Percent Recovery B-to-A.
Setting [10] is: classification from Papp(B-to-A) and ratio.

Molecules are shown by their SMILES. Converted amounts (≈) assume the structure as drawn. Like-named read-outs stand apart in the source and are kept apart here.

Regarding `COc1cc(C(=O)N(NC(=O)c2ccc3c(c2C)OCCO3)C(C)(C)C)cc(OC)c1O` [RG-115009, 4-Hydroxy-3,5-dimethoxy-benzoic acid N-tert-butyl-N′-(5-methyl-2,3-dihydro-benzo[1,4]dioxine-6-carbonyl)-hydrazide], the “Secreted Alkaline Phosphatase (percentage of GS ™-E ligand induction) Day 2” value in data set [1] (IP 2.6 μmol ligand 3 days after electroporation, day 2 after ligand) is 4 percentage of GS ™-E ligand induction. In addition, in data set [1] (IP 2.6 μmol ligand, day 3 after ligand), the “Secreted Alkaline Phosphatase (percentage of GS ™-E ligand induction) Day 3” value was 3 percentage of GS ™-E ligand induction. Further, the kinetic solubility (in general, solubility judged after dilution from a stock solution rather than from solid) in data set [2] is 30.4 µM (≈ 13.5 µg/mL).

`COc1cccc(C(=O)NN(C(=O)c2cc(C)cc(C)c2)C(C)(C)C)c1C` [RG-102398]: in data set [3], the “Log(D) Octanol/pH 7.4” value came out at 3.5. Besides, the recovery at 2 h, 10 μM worked out at 94% in data set [4] (setting [6]), 85% in data set [4] (setting [8]) and 90% in data set [4] (setting [9]). In addition, in data set [4], the Papp – broadly, a coefficient for how fast a substance crosses the barrier – at 2 h, 10 µM amounted to 34.7 ×10⁻⁶ cm/s. In data set [4] (human, Caco-2, pH 7), the efflux ratio (usually the permeability from basolateral to apical divided by that in the opposite direction, in the common usage) at 2 h, 10 μM came to 1. Moreover, the apparent permeability from apical to basolateral (Papp A→B) (usually how fast a substance crosses the layer from the apical side) at 2 h, 10 µM in data set [4] (human, Caco-2, pH 7, Caco-2, 10 μM, average of 2 replicates, read-out: Papp, A-to-B Avg) amounted to 26.9 ×10⁻⁶ cm/s; in data set [4] (human, Caco-2, pH 7, Caco-2, 10 μM, replicate 2, read-out: Papp, A-to-B Rep. 2), 26.8 ×10⁻⁶ cm/s; in data set [4] (human, Caco-2, pH 7, Papp, A-to-B Rep. 1), 27 ×10⁻⁶ cm/s. Further, the Papp B→A (commonly how fast a substance crosses the layer from the basolateral side) at 2 h, 10 µM in data set [4] (setting [7]) was 28.2 ×10⁻⁶ cm/s; in data set [4] (human, Caco-2, pH 7, Papp, B-to-A Avg) it was 27.1 ×10⁻⁶ cm/s; in data set [4] (human, Caco-2, pH 7, Papp, B-to-A Rep. 1) it was 25.9 ×10⁻⁶ cm/s. Besides, the “Absorption Potential” value in the data set with Caco-2 monolayers is “High (Papp(A-to-B) ≧ 1.0 × 10^−6 cm/s High)”. In addition, in the data set on Caco-2 monolayers (setting [10]), the “Significant Efflux” value is listed as “No”. Besides, the solubility (usually how much of the substance goes into solution per volume) in data set [5] is no more than 0.2 µg/mL.

In the case of `CCc1c(C(=O)NN(C(=O)c2ccc(F)c(C(F)(F)F)c2)C(C)(C)C)ccc2c1OCCO2` [RG-115280], the “Log(D) Octanol/pH 7.4” value in data set [3] is listed as 3.9. In the data set on Caco-2 monolayers (Caco-2), the “Papp Blank” value is on record as 1.88 10^−6 cm/s; the “Papp, A-to-B Avg” value is on record as 1.27 10^−6 cm/s; the “Papp, A-to-B Rep. 1” value is listed as 1.24 10^−6 cm/s; the “Papp, A-to-B Rep. 2” value is on record as 1.30 10^−6 cm/s. In the data set with Caco-2 monolayers (Caco-2), the “Papp, B-to-A Avg” value is given as 1.49 10^−6 cm/s; the “Papp, B-to-A Rep. 1” value is 1.50 10^−6 cm/s; the “Papp, B-to-A Rep. 2” value is listed as 1.48 10^−6 cm/s; the “Significant Efflux” value is recorded as “No”. Moreover, the “Papp B-A / Papp A-B Ratio” value in the data set on Caco-2 monolayers (Caco-2 efflux ratio) is on record as 1.2. Also, the “Solubility pH 7.4” value in data set [5] (pH 7.4 aqueous buffer, room temperature, equilibrium) worked out at 0.0012 mg/mL.

In the case of `CCc1ccc(C(=O)NN(C(=O)c2cc(C)cc(C)c2)C(C)(C)C)cc1` [RG-102125], the “Log(D) Octanol/pH 7.4” value in data set [3] amounted to 3.2. Moreover, the recovery at 2 h, 10 μM came to 62% in data set [4] (setting [6]), 84% in data set [4] (setting [8]) and 63% in data set [4] (setting [9]). Further, in data set [4], the apparent permeability (Papp) at 2 h, 10 µM was determined as 21.9 ×10⁻⁶ cm/s. Also, the Papp B→A at 2 h, 10 µM in data set [4] (human, Caco-2, pH 7, Caco-2, 10 μM, average of 2 replicates, read-out: Papp, B-to-A Avg) turned out to be 20.2 ×10⁻⁶ cm/s; in data set [4] (human, Caco-2, pH 7, Caco-2, 10 μM, replicate 1, read-out: Papp, B-to-A Rep. 1) it was 20.7 ×10⁻⁶ cm/s; in data set [4] (setting [7]), 19.7 ×10⁻⁶ cm/s. The apparent permeability from apical to basolateral (Papp A→B) at 2 h, 10 µM in data set [4] (human, Caco-2, pH 7, Caco-2, 10 μM, replicate 1, read-out: Papp, A-to-B Rep. 1) worked out at 25.7 ×10⁻⁶ cm/s; in data set [4] (human, Caco-2, pH 7, Papp, A-to-B Avg), 26 ×10⁻⁶ cm/s; in data set [4] (human, Caco-2, pH 7, Papp, A-to-B Rep. 2), 26.3 ×10⁻⁶ cm/s. In the data set with Caco-2 monolayers, the “Absorption Potential” value is listed as “High (Papp(A-to-B) ≧ 1.0 × 10^−6 cm/s High)”. In addition, the “Significant Efflux” value in the data set on Caco-2 monolayers (setting [10]) is reported as “No”. The molecule further registered a solubility in data set [5] of 0.6 µg/mL (≈ 1.7 µM).
